In US11440932B2, “Surfactant compounds-clips for extraction and stabilization in solution of membrane proteins” (CENTRE NATIONAL DE LA RECHERCHE SCIENTIFIQUE, priority 2017, dated 2022):

Key:
[1] = Diameter of micelles by dynamic light scattering (DLS); format: physicochemical; conditions: estimated micelle diameter by DLS; 30 mM tris-HCl, pH 8.0
Description: FIG. 5 depicts the dynamic light scattering (DLS) of clips, in intensity (%, column A on the left) and in number (%, column B on the right), as a function of the […] (nm). The estimated diameters are indicated on each panel (column A). Columns A and B, from top to bottom: compound 3.7c (10 mM, 5×CMC), compound 3.7d (10 mM, 5×CMC), compound 3.7e (2 mM, […]), compound 3.7f (10 mM, 500×CMC), compound 3.7h (1 mM, 100×CMC), compound 3.7j (2 mM, 100×CMC), compound 3.9a (1 mM, 50×CMC).
Another physicochemical parameter of the micelles of detergents is their diameter, assuming that they are spherical. This dimension is obtained by the light scattering (DLS) technique.
Procedure. The molecules of the invention tested were prepared in a range of concentrations extending from 0.1 to 1000×CMC in 30 mM tris-HCl, pH 8.0 and neutralized at this pH. The solutions are filtered on 0.22 μm. The measurement is carried out on 100 μl, in triplicate on a Zetasizer Nano-S from Malvern Instruments.

BmrA [2] = molecular target: T1, BmrA (Bacillus subtilis, UniProt O06967); assay: Extraction of BmrA from membranes (SDS-PAGE of supernatant); design: species or system bacterial; overexpressed in E. coli C41DE3; conditions: detergent 10 g/l unless indicated otherwise; 2 h at 4° C.
T1 construct: His tag; made in house; host or cells: E. coli C41(DE3)
T1 sequence (O06967 whole entry): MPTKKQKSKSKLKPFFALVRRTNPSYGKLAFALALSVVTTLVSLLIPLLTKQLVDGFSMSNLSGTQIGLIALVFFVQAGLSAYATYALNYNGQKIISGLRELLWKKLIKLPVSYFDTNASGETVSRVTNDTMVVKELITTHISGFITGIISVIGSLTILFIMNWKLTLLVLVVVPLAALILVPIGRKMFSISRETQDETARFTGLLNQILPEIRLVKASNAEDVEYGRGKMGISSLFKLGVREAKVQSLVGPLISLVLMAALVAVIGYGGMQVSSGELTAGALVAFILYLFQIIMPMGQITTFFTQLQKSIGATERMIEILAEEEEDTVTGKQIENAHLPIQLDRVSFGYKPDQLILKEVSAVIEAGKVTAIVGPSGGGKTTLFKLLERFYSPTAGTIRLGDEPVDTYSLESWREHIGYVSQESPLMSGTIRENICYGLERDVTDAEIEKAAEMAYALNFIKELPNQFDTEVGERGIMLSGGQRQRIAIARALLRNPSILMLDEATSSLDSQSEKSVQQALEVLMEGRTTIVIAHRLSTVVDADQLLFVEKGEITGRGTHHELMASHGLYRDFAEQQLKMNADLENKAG
Description: (§1) FIG. 6 depicts the extraction of the membrane proteins BmrA (panels A and C) and AcrB (panels B and D) using commercial detergents and the molecules of the invention (panels A and B, from left to right): SDS, DDM, FC12, TX100, compounds of the invention 1.4, 1.5, 2.3a, 2.3b, 2.3c, 2.3d, 2.3e, 2.3f, 2.3g, 2.3h, 2.3i, 3.7a, 3.7b; panel C: compounds of the invention 3.7c 0.8%, 3.7d 0.16%, 3.7e 0.8%, 3.7f 0.3%, 3.7g 0.4%, 3.7h 0.2%, 3.7i 0.07%, 3.7j 0.09%, 3.7k, 3.7l, 0.25%, 3.9a, 4.5a, 4.5b, 4.5c, 4.5d 0.34%, 4.6a, 4.6b, 4.6c, 4.6d, 5.3a, 5.3b, 5.3c 0.3%, 5.3d 0.3%; panel D: 3.7c, 3.7d, 3.7e, 3.7f, 3.7h, 3.7i 0.1%, 3.7j, 3.7k, 3.7l, 3.9a, 4.5a, 4.5b, 4.5c, 4.5d, 4.6a, 4.6b, 4.6c, 4.6d. The detergents are added at 10 g/l (1%), unless indicated otherwise. The equivalent of 20 μg of proteins of the extracted fraction after centrifugation at 100 000×g for 30 min is deposited on 10% SDS-PAGE, stained with Coomassie blue after migration. BmrA migrates in its monomeric form to the level of the 55 kDa band; AcrB migrates in its monomeric form to the level of the 100 kDa band. SDS=sodium dodecyl sulfate; DDM=β-D-dodecyl maltoside; FC12=foscholine-12; TX100=triton X-100.
(§2) The extraction capacity of the detergents of the series is tested on membranes in which BmrA or AcrB are strongly expressed. The extraction with the clips (molecules of the invention) is compared to that obtained with commercial detergents, used as reference.
(§3) Procedure. BmrA represents 25% of the proteins present in the overexpression system used (E. coli, C41DE3). These membranes are prepared as described previously (Matar-Merheb, R. et al. ([11])). The membranes containing AcrB (approximately 20% of the membrane proteins, same expression system as BmrA) were prepared as described previously (Seeger, M. A. et al. ([21])). The detergents are used at 10 g/l unless indicated otherwise, and the proteins diluted at 2 g/l in a 20 mM Tris-HCl buffer, pH 8.0, 100 mM NaCl, 15% glycerol, with protease inhibitors (Roche) added thereto at an amount of one tablet/100 ml. The mixture (T) is incubated for 2 h at 4° C. then centrifuged for 1 h at 4° C. at 100 000×g in order to separate the extracted fraction (supernatant, S) from that which is not extracted (pellet). The supernatants are deposited on 10% SDS-PAGE and stained with Coomassie blue after migration. The foscholine 12, DDM and LMNG originate from Anatrace, the SDS and Triton X100 originate from Sigma-Aldrich.

AcrB = molecular target: T2, AcrB (Escherichia coli, UniProt P31224); assay: Extraction of AcrB from membranes (SDS-PAGE of supernatant); design: species or system bacterial; same expression system (E. coli C41DE3); conditions: detergent 10 g/l unless indicated otherwise; 2 h at 4° C.
T2 construct: made in house; host or cells: E. coli C41(DE3)
T2 sequence (P31224 whole entry): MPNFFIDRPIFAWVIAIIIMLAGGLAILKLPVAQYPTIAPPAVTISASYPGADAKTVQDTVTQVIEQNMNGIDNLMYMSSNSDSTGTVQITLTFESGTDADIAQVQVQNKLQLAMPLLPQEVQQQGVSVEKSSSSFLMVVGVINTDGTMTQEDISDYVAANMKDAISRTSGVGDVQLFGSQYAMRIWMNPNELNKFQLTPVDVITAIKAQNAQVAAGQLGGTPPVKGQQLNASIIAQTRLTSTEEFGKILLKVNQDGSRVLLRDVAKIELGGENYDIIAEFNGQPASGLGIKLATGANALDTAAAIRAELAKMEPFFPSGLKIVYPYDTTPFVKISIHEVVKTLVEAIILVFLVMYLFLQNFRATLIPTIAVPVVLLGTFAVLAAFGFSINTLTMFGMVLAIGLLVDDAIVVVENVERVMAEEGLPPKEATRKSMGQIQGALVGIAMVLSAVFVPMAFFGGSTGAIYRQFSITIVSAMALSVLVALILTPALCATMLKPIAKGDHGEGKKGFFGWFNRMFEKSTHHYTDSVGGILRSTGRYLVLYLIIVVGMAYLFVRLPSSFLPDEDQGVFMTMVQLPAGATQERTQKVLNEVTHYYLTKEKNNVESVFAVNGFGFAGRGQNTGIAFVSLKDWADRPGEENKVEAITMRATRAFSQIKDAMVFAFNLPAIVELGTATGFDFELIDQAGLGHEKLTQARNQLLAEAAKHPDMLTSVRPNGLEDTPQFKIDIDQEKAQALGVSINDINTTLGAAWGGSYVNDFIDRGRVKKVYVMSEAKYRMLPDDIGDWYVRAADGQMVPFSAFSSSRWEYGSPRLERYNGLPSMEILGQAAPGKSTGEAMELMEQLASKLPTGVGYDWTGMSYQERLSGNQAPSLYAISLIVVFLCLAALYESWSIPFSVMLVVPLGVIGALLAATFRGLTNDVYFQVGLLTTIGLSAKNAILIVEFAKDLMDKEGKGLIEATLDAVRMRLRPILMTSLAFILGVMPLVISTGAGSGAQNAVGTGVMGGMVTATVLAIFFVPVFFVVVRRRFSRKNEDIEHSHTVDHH
Description: as §1, §2, §3

[3] = Critical micelle concentration (CMC) by DPH fluorescence; format: physicochemical; conditions: 50 mM tris-HCl, pH 8.0
Description: FIG. 4 represents the fluorescence (%) of DPH (1,6-diphenyl-1,3,5-hexatriene) in the presence of increasing concentrations (0.0001 mM, 0.001 mM, 0.01 mM, 0.1 mM, 1 mM and 10 mM) of clips (compounds of the invention), exemplified with the compounds #3.7e (C13, points represented by squares) and 3.7f (C18, points represented by circles). The experiment is carried out in triplicates. In accordance with Chattopadhyay, A. & London, E ([22]), the CMC corresponds to the concentration at which the breakage in the slope is observed, here at 20 μM for 3.7f and 2 mM for 3.7e (black symbols).
Procedure. The molecules of the invention were prepared in a range of concentrations extending from 0.1 μM to 10 mM in 50 mM tris-HCl, pH 8.0 and neutralized at this pH. To 80 μl of each solution (triplicate), the same volume of 10 μM of 1,6-diphenyl-1,3,5-hexatriene (DPH, Sigma, D208000) is added, prepared at 100 μM in tetrahydrofuran then diluted 10-fold in H2O. The increase in the fluorescence of the DPH occurs when the latter find micelles of clips into which it can insert itself (Chattopadhyay, A. & London, E. Fluorimetric determination of critical micelle concentration avoiding interference from detergent charge. Anal Biochem 139, 408-412 (1984) ([22])). The fluorescence is read with a Xenius SAFAS fluorimeter by exciting at 358 nm and recording the fluorescence emission at 430 nm, with slits of 9 to 10 nm for the excitation and the emission and a gain of 100 to 150, depending on the cases.
Results. The CMC of the detergents is the concentration starting from which they associate with one another to form micelles, in which, in aqueous solution, the hydrophobic portions are grouped together at the center and the hydrophilic regions are exposed to the solvent. […] A typical result obtained with a compound 3.7 provided with a C13 (3.7e) or C18 ([…]) aliphatic chain is illustrated in FIG. 4.

BmrA [4] = molecular target: T1, BmrA; assay: Size exclusion chromatography of BmrA after detergent exchange; conditions: Superdex 200 5/150, 2 CMC of detergent, 0.3 ml/min
Description: The membrane fraction was extracted and purified in DDM by Ni-NTA metal affinity and Superdex 200 size exclusion, before being reloaded on Ni-NTA in order to exchange the DDM either with itself or with the compound 3.7c. Each pool was subsequently loaded onto a 3 ml Superdex S200 5/150 size exclusion column and eluted in the presence of 2 CMC of the same detergent, as indicated. The proteins are detected by absorbance at 280 nm.
The capacity of the compounds of the invention to maintain the membrane proteins in a native state was exemplified with the compound 3.7c of the invention, monitored by size exclusion chromatography and compared to the reference detergent DDM.
Procedure: BmrA was extracted in DDM and purified by Ni-NTA affinity chromatography as described in example 13, then loaded onto a Superdex 200 10/300 size exclusion column and eluted with 50 mM Hepes-HCl pH 8.0, 100 mM NaCl, 0.4 mM DDM (2×CMC). The fractions containing BmrA were pooled and separated into several aliquots (˜100 μg) kept at 4° C. One aliquot was subsequently reloaded onto an affinity column containing 1 ml of resin. The DDM was then exchanged against 10 volumes of Hepes-NaCl buffer containing either 2 CMC of DDM (control experiment) or 2 CMC of compound 3.7c (2 mM). BmrA was subsequently eluted in the respective buffers with 100 mM of imidazole added. The fractions containing the proteins were combined and concentrated on 50 kDa amicon (regenerated cellulose) to 50 μl, and were then deposited on a 3 ml Superdex 200 5/150 size exclusion column, equilibrated in 50 mM Hepes-HCl pH 8.0, 100 mM NaCl, and 2 CMC of DDM (0.4 mM) or 3.7c (2 mM). The elution was subsequently carried out at 0.3 ml/min in the respective buffers and the BmrA detected at 280 nm.

Row | SMILES | Ø, nm [1] | extraction of BmrA (BmrA [2]) | extraction of AcrB (AcrB) | CMC [3] [mM] | elution volume of BmrA (BmrA [4]) [mL]
1 | CCCCCCCCCCCCCCCCCCC(=O)N[C@@H](COCc1cn(CCOCCOCCOCCOCCOCCOC)nn1)C(=O)N[C@H](CCC(=O)O)C(=O)O [Compound 3.7h] | 3-4 nm | extracting | extracting | 0.01 | –
2 | CCCCCCCCCCCCO[C@@H]1O[C@H](CO)[C@@H](O[C@H]2O[C@H](CO)[C@@H](O)[C@H](O)[C@H]2O)[C@H](O)[C@H]1O [DDM, n-dodecyl β-d-maltoside, reference compound] | – | solubilize | solubilize | – | ~1.6
